In ChEMBL document CHEMBL1201862, “PubChem BioAssay data set” (2004):
Values joined by “and” are separate entries in the source; they are usually repeats but may differ in a detail not shown here. Equal values may be shown once.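 Cells were grown in 96-well plates and exposed to each compound for 48 hours at five concentrations; endpoints were interpolated linearly between bracketing concentrations, or set to the highest concentration if not reached. At the GI50, growth is halved.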 Active and inactive are the calls of the source. Cut-off read from the data, not from the text of the source: active = GI50 up to about 1.1 µM and inactive = higher.

Columns and labels:
Assay in all cases: NCI tumour cell line growth inhibition, 48 h
[1] = test system: LOX IMVI
[2] = test system: OVCAR-4
[3] = test system: UACC-257
[4] = test system: RPMI-8226
[5] = test system: HCT-15
[6] = test system: MDA-MB-435
[7] = test system: NCI-H23
[8] = test system: HOP-62
[9] = test system: SK-MEL-2
[10] = test system: SNB-19
[11] = test system: M14
[12] = test system: DU-145
[13] = test system: KM12
[14] = test system: NCI-H522
[15] = test system: SN12C
[16] = test system: MDA-MB-231
[17] = test system: NCI/ADR-RES
[18] = test system: A549
[19] = test system: CCRF-CEM
[20] = test system: 786-0

SMILES	GI50 [1]	GI50 [2]	GI50 [3]	GI50 [4]	GI50 [5] [µM]	GI50 [6]	GI50 [7]	GI50 [8]	GI50 [9]	GI50 [10]	GI50 [11]	GI50 [12]	GI50 [13]	GI50 [14]	GI50 [15]	GI50 [16]	GI50 [17]	GI50 [18]	GI50 [19]	GI50 [20]
Nc1ccccc1.O=P(O)(OP(=O)(O)c1ccccc1)c1ccccc1	> 100 µM (inactive)	> 100 µM (inactive)	> 100 µM (inactive)	> 100 µM (inactive)	89.3	> 100 µM (inactive)	> 100 µM (inactive)	> 100 µM (inactive)	> 100 µM (inactive)	> 100 µM (inactive)	> 100 µM (inactive)	> 100 µM (inactive)	> 100 µM (inactive)	> 100 µM (inactive)	> 100 µM (inactive)	> 100 µM (inactive)	> 100 µM (inactive)	> 100 µM (inactive)	> 100 µM (inactive)	> 100 µM (inactive)
Cc1[nH]n(-c2ccc(S(=O)(=O)O)cc2)c(=O)c1/N=N/c1ccccc1	26.7 µM (inactive)	> 100 µM (inactive)	> 100 µM (inactive)	> 100 µM (inactive)	> 100	> 100 µM (inactive)	> 100 µM (inactive)	> 100 µM (inactive)	> 100 µM (inactive)	> 100 µM (inactive)	> 100 µM (inactive)	> 100 µM (inactive)	> 100 µM (inactive)	35 µM (inactive)	> 100 µM (inactive)	> 100 µM (inactive)	> 100 µM (inactive)	> 100 µM (inactive)	–	> 100 µM (inactive)
C[N+]1(CCC[N+]2(C)CC3C4C=CC(CC4)C3C2)CCOCC1 (stereo unspecified)	> 100 µM (inactive)	> 100 µM (inactive)	> 100 µM (inactive)	> 100 µM (inactive)	> 100	> 100 µM (inactive)	> 100 µM (inactive)	> 100 µM (inactive)	> 100 µM (inactive)	> 100 µM (inactive)	> 100 µM (inactive)	> 100 µM (inactive)	> 100 µM (inactive)	> 100 µM (inactive)	> 100 µM (inactive)	> 100 µM (inactive)	> 100 µM (inactive)	> 100 µM (inactive)	> 100 µM (inactive)	> 100 µM (inactive)
COc1cccc(C2CC(C)(N3CCCC3)Oc3cc4c(cc32)OCO4)c1O (stereo unspecified)	28.8 µM (inactive)	48.1 µM (inactive)	35.4 µM (inactive)	21.3 µM (inactive)	11.3	4.39 µM (inactive)	27.4 µM (inactive)	27 µM (inactive)	16.5 µM (inactive)	37.6 µM (inactive)	17.3 µM (inactive)	32 µM (inactive)	22 µM (inactive)	19.1 µM (inactive)	25.6 µM (inactive)	19.1 µM (inactive)	20.8 µM (inactive)	31.9 µM (inactive)	15.2 µM (inactive)	32.8 µM (inactive)
Cc1ccc(C(=O)N/N=C(\N=N\c2ccccc2)c2ccc(N(C)C)cc2)cc1	> 100 µM (inactive)	16.3 µM (inactive)	> 100 µM (inactive)	> 100 µM (inactive)	> 100	24 µM (inactive)	> 100 µM (inactive)	–	> 100 µM (inactive)	80.4 µM (inactive)	> 100 µM (inactive)	20.9 µM (inactive)	71.1 µM (inactive)	65.8 µM (inactive)	> 100 µM (inactive)	> 100 µM (inactive)	> 100 µM (inactive)	> 100 µM (inactive)	> 100 µM (inactive)	68.2 µM (inactive)
Cc1cc(OCc2nnc3n2N=C(c2cc(F)c(Cl)cc2Cl)/C(=C/c2ccc(Cl)cc2)S3)ccc1Cl	21.9 µM (inactive)	19.5 µM (inactive)	38.5 µM (inactive)	11.7 µM (inactive)	19.7	24.2 µM (inactive)	27.4 µM (inactive)	43.1 µM (inactive)	29 µM (inactive)	–	25 µM (inactive)	17.4 µM (inactive)	22.9 µM (inactive)	14.7 µM (inactive)	–	29.7 µM (inactive)	33.2 µM (inactive)	–	2.95 µM (inactive)	28.1 µM (inactive)
CC(=O)N1C(C(=O)NNc2ccccc2)CSC1c1ccccc1 (stereo unspecified)	3.16 µM (inactive)	> 100 µM (inactive)	> 100 µM (inactive)	37.8 µM (inactive)	1.56	16.7 µM (inactive)	> 100 µM (inactive)	> 100 µM (inactive)	> 100 µM (inactive)	> 100 µM (inactive)	16.7 µM (inactive)	> 100 µM (inactive)	71.3 µM (inactive)	0.471 µM (active)	> 100 µM (inactive)	> 100 µM (inactive)	> 100 µM (inactive)	71 µM (inactive)	77.3 µM (inactive)	> 100 µM (inactive)
O=c1cc(C(F)(F)F)c2cc3c(cc2o1)NCCC3	> 100 µM (inactive)	70.6 µM (inactive)	> 100 µM (inactive)	> 100 µM (inactive)	> 100	> 100 µM (inactive)	> 100 µM (inactive)	17.1 µM (inactive)	78.3 µM (inactive)	23 µM (inactive)	> 100 µM (inactive)	> 100 µM (inactive)	> 100 µM (inactive)	49.5 µM (inactive)	> 100 µM (inactive)	> 100 µM (inactive)	> 100 µM (inactive)	> 100 µM (inactive)	> 100 µM (inactive)	35.2 µM (inactive)
Cc1c(Cl)cccc1NC(=O)CC1Sc2ccccc2NC1=O (stereo unspecified)	24.8 µM (inactive) and 33.8 µM (inactive)	22 µM (inactive) and 16.5 µM (inactive)	–	23.9 µM (inactive) and 32.4 µM (inactive)	–	2.82 µM (inactive)	35.9 µM (inactive) and 24 µM (inactive)	10.1 µM (inactive) and 18.2 µM (inactive)	16.4 µM (inactive) and 17.9 µM (inactive)	19.4 µM (inactive) and 20.1 µM (inactive)	32.3 µM (inactive) and 22.6 µM (inactive)	53.7 µM (inactive)	11 µM (inactive) and 16.6 µM (inactive)	27.7 µM (inactive) and 21 µM (inactive)	25.1 µM (inactive) and 47.2 µM (inactive)	14 µM (inactive)	17 µM (inactive)	19.8 µM (inactive) and 29.2 µM (inactive)	68.4 µM (inactive) and 46.2 µM (inactive)	24 µM (inactive) and 17.4 µM (inactive)
CC1(C)OC(=O)C(C#N)=C1C[n+]1ccccc1	> 10 µM (inactive)	> 10 µM (inactive)	> 10 µM (inactive)	> 10 µM (inactive)	> 10	> 10 µM (inactive)	> 10 µM (inactive)	> 10 µM (inactive)	> 10 µM (inactive)	> 10 µM (inactive)	> 10 µM (inactive)	> 10 µM (inactive)	> 10 µM (inactive)	> 10 µM (inactive)	> 10 µM (inactive)	> 10 µM (inactive)	> 10 µM (inactive)	–	> 10 µM (inactive)	> 10 µM (inactive)
COc1ccc(NC(=O)Oc2cc(C)c3ccc(=O)cc-3o2)c(OC)c1.COc1ccc(NC(=O)Oc2ccc3c(C)cc(=O)oc3c2)c(OC)c1	–	69.8 µM (inactive)	–	> 100 µM (inactive)	> 100	> 100 µM (inactive)	> 100 µM (inactive)	> 100 µM (inactive)	> 100 µM (inactive)	> 100 µM (inactive)	> 100 µM (inactive)	> 100 µM (inactive)	78.7 µM (inactive)	> 100 µM (inactive)	> 100 µM (inactive)	> 100 µM (inactive)	> 100 µM (inactive)	> 100 µM (inactive)	–	> 100 µM (inactive)
COC(=O)CCCC(=O)NC1=C(Nc2ccc(OC)cc2)C(=O)c2ccccc2C1=O	25.9 µM (inactive)	17.8 µM (inactive)	18.1 µM (inactive)	26.4 µM (inactive)	23.8	18.2 µM (inactive)	20.4 µM (inactive)	–	17.9 µM (inactive)	42.7 µM (inactive)	19.4 µM (inactive)	16.3 µM (inactive)	28.8 µM (inactive)	37.5 µM (inactive)	27.7 µM (inactive)	30.1 µM (inactive)	21.9 µM (inactive)	22.3 µM (inactive)	20.8 µM (inactive)	34.6 µM (inactive)
O=C1c2ccccc2-c2oc(=O)c3ccccc3c21	> 100 µM (inactive)	> 100 µM (inactive)	> 100 µM (inactive)	41.3 µM (inactive)	> 100	> 100 µM (inactive)	> 100 µM (inactive)	> 100 µM (inactive)	> 100 µM (inactive)	> 100 µM (inactive)	> 100 µM (inactive)	> 100 µM (inactive)	> 100 µM (inactive)	0.962 µM (active)	> 100 µM (inactive)	> 100 µM (inactive)	> 100 µM (inactive)	–	> 100 µM (inactive)	> 100 µM (inactive)
CC[C@@H]1C[C@@H](O)[C@@H]2[C@H](O)[C@H](O)CN2C1	> 100 µM (inactive)	> 100 µM (inactive)	> 100 µM (inactive)	> 100 µM (inactive)	> 100	> 100 µM (inactive)	> 100 µM (inactive)	–	> 100 µM (inactive)	> 100 µM (inactive)	> 100 µM (inactive)	> 100 µM (inactive)	> 100 µM (inactive)	> 100 µM (inactive)	> 100 µM (inactive)	> 100 µM (inactive)	> 100 µM (inactive)	> 100 µM (inactive)	> 100 µM (inactive)	> 100 µM (inactive)
